{
  "source": "ChEMBL document CHEMBL4330159",
  "about": "“Isoquinoline Alkaloids from Berberis vulgaris as Potential Lead Compounds for the Treatment of Alzheimer's Disease” (J Nat Prod, 2019)",
  "key": {"[1]": {"biological_target": "T1, Prolyl endopeptidase (Homo sapiens, UniProt P48147)", "T1 sequence (P48147 whole entry)": "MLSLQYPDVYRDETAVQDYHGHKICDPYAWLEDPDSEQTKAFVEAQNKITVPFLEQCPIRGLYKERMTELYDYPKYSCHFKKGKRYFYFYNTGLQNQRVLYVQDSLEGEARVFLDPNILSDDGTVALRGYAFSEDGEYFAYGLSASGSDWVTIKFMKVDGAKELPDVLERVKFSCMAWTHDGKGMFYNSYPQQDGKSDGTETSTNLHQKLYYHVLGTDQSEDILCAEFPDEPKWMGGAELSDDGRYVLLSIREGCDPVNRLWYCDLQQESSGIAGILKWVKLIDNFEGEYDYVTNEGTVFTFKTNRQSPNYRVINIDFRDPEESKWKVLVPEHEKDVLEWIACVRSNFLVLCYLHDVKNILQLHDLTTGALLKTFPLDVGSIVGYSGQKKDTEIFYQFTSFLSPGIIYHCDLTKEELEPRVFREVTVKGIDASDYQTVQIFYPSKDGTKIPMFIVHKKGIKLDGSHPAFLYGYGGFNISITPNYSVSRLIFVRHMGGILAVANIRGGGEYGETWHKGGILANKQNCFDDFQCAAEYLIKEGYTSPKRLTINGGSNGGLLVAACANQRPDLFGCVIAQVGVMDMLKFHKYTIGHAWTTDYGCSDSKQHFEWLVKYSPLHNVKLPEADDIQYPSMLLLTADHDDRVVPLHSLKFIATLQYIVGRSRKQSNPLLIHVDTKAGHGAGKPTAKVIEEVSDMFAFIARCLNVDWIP", "assay": "Inhibition of POP (unknown origin) using (Z)-Gly-Pro-p-nitroanilide as substrate preincubated for 5 mins followed by substrate addition and measured after 30 mins by spectrophotometric method"}, "[2]": {"species_on_record": "Homo sapiens", "assay": "Selectivity index, ratio of IC50 for human BuChE to IC50 for human AChE"}, "[3]": {"biological_target": "Acetylcholinesterase (Homo sapiens, UniProt P22303)", "sequence (P22303 whole entry)": "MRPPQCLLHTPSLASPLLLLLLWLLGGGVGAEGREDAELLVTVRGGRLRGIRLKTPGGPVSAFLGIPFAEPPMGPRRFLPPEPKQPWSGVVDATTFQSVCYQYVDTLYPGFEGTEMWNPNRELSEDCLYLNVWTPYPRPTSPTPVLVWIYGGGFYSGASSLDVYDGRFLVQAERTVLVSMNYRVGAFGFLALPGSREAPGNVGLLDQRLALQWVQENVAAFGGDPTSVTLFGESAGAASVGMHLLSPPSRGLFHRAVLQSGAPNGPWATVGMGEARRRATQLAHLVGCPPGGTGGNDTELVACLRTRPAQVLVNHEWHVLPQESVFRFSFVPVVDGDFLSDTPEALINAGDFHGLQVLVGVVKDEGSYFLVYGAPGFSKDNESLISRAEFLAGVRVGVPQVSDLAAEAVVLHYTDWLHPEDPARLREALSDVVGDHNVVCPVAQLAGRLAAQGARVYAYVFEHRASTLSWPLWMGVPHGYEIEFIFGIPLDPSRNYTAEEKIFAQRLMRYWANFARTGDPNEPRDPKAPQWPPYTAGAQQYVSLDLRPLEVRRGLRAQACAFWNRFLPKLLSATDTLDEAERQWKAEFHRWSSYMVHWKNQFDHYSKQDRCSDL", "description": "Inhibition of human AChE using acetylthiocholine iodide as substrate measured for 1 min by Ellman's method"}, "[4]": {"biological_target": "T2, Cholinesterase (Homo sapiens, UniProt P06276)", "T2 sequence (P06276 whole entry)": "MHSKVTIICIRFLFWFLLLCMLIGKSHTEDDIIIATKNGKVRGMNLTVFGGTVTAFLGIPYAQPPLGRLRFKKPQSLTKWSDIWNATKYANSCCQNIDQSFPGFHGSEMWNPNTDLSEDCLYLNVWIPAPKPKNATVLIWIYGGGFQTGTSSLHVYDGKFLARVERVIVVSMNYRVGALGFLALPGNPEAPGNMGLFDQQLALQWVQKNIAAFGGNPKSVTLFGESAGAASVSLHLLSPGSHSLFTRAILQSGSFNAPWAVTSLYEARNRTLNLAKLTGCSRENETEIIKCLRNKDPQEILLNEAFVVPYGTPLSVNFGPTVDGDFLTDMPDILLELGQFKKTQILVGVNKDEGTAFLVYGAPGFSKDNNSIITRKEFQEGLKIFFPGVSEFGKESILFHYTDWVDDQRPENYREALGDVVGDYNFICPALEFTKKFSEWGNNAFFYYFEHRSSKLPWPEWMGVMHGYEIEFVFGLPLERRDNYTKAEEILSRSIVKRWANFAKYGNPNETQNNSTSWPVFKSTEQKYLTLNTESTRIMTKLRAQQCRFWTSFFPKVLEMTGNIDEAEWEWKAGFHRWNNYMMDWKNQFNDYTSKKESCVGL", "assay": "Inhibition of human BuChE using butyrylthiocholine iodide as substrate measured for 1 min by Ellman's method"}, "[5]": {"assay": "Permeability of the compound after 2.45 hrs by PAMPA", "assay_type": "ADME", "conditions": "read-out: permeability"}, "[6]": {"biological_target": "T2, Cholinesterase", "assay": "Mixed-type inhibition of human BuChE assessed as enzyme-inhibitor complex using butyrylthiocholine iodide as substrate by Lineweaver-Burk plot analysis"}, "[7]": {"biological_target": "T2, Cholinesterase", "assay": "Mixed-type inhibition of human BuChE assessed as enzyme-substrate-inhibitor complex using butyrylthiocholine iodide as substrate by Lineweaver-Burk plot analysis"}, "[8]": {"biological_target": "Glycogen synthase kinase-3 beta (Homo sapiens) (UniProt P49841)", "sequence (P49841 whole entry, looked up)": "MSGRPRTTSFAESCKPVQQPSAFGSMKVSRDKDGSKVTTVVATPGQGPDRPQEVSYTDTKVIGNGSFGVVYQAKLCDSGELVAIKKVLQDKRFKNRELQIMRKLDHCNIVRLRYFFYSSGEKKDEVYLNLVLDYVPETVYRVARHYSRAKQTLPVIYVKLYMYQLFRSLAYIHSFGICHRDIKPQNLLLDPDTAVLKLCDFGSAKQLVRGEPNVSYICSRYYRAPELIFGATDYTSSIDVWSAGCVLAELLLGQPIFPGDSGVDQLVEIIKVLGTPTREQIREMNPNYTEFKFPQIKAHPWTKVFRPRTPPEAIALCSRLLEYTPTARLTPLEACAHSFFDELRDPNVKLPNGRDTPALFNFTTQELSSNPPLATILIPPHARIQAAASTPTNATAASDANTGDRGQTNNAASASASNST", "assay": "Inhibition of GSK3B (unknown origin) at 10 uM relative to control"}},
  "note": "pIC50, pKi: −log10 of the molar value.",
  "data": [
    {"smiles": "COc1cc2c3cc1Oc1c(O)c(OC)cc4c1[C@@H](Cc1ccc(O)c(c1)Oc1ccc(cc1)C[C@@H]3N(C)CC2)N(C)CC4", "note": "[OBAMEGINE]", "values": [
      {"measurement": "pIC50", "setting": "[1]", "value": "< 3.70"},
      {"measurement": "Ratio IC50", "setting": "[2]", "value": 1.5},
      {"measurement": "pIC50", "setting": "[3]", "value": 4.01},
      {"measurement": "pIC50", "setting": "[4]", "value": "< 4.00"}
    ]},
    {"smiles": "COc1ccc2c3c1O[C@H]1C[C@@H](O)C=C[C@@]31CCN(C)C2", "note": "[GALANTAMINE]", "values": [
      {"measurement": "pIC50", "setting": "[1]", "value": "< 3.70"}
    ]},
    {"smiles": "COc1cc2c(cc1Oc1c3c(cc(OC)c1OC)CCN(C)C3)C(Cc1ccc(O)cc1)N(C)CC2", "note": "(stereo not given)", "values": [
      {"measurement": "pIC50", "setting": "[1]", "value": "< 3.70"},
      {"measurement": "Ratio IC50", "setting": "[2]", "value": 0.2},
      {"measurement": "pIC50", "setting": "[3]", "value": "< 4.00"},
      {"measurement": "pIC50", "setting": "[4]", "value": 4.17}
    ]},
    {"smiles": "COc1cc2c(cc1O)C(Cc1ccc(O)c(Oc3cc(CC4c5cc(O)c(OC)cc5CCN4C)ccc3OC)c1)N(C)CC2", "note": "(stereo not given)", "values": [
      {"measurement": "Ratio IC50", "setting": "[2]", "value": 0.1},
      {"measurement": "pIC50", "setting": "[3]", "value": 4.18},
      {"measurement": "pIC50", "setting": "[4]", "value": 5.16}
    ]},
    {"smiles": "COc1ccc2cc3[n+](cc2c1OC)CCc1cc2c(cc1-3)OCO2", "note": "[BERBERINE]", "values": [
      {"measurement": "Papp at 2.45 h", "setting": "[5]", "value": 0.1, "unit": "×10⁻⁶ cm/s"}
    ]},
    {"smiles": "CCN(CC)Cc1cc2cc(c1O)Oc1ccc(cc1)C[C@H]1c3cc(c(OC)cc3CCN1C)Oc1c(OC)c(OC)cc3c1[C@@H](C2)N(C)CC3", "values": [
      {"measurement": "pIC50", "setting": "[3]", "value": 4.17},
      {"measurement": "pIC50", "setting": "[4]", "value": "< 4.00"}
    ]},
    {"smiles": "COc1ccc2cc3n(c(=O)c2c1OC)CCc1cc2c(cc1-3)OCO2", "note": "[OXYBERBERINE]", "values": [
      {"measurement": "pIC50", "setting": "[1]", "value": "< 3.70"},
      {"measurement": "Ratio IC50", "setting": "[2]", "value": 1.1},
      {"measurement": "pIC50", "setting": "[3]", "value": "< 4.00"},
      {"measurement": "pIC50", "setting": "[4]", "value": 4.17}
    ]},
    {"smiles": "COc1cc2c3cc1Oc1c(OC)c(OC)cc4c1[C@@H](Cc1ccc(O)c(c1)Oc1ccc(cc1)C[C@@H]3N(C)CC2)N(C)CC4", "note": "[BERBAMINE]", "values": [
      {"measurement": "pIC50", "setting": "[1]", "value": "< 3.70"},
      {"measurement": "Ratio IC50", "setting": "[2]", "value": 0.4},
      {"measurement": "pIC50", "setting": "[3]", "value": "< 4.00"},
      {"measurement": "pIC50", "setting": "[4]", "value": "< 4.00"}
    ]},
    {"smiles": "C/C=C1\\[C@H]2C=C(C)C[C@]1(N)c1ccc(=O)[nH]c1C2", "note": "[HUPERZINE A]", "values": [
      {"measurement": "pIC50", "setting": "[4]", "value": "< 4.00"}
    ]},
    {"smiles": "COc1cc2c(cc1OC)-c1cc3ccc(OC)c(OC)c3c[n+]1CC2", "note": "[PALMITINE]", "values": [
      {"measurement": "pIC50", "setting": "[1]", "value": "< 3.70"},
      {"measurement": "Ratio IC50", "setting": "[2]", "value": 86},
      {"measurement": "pIC50", "setting": "[4]", "value": "< 4.00"}
    ]},
    {"smiles": "COc1cc2c3cc1Oc1c(O)c(OC)cc4c1[C@H](Cc1ccc(cc1)Oc1cc(ccc1O)C[C@H]3N(C)CC2)N(C)CC4", "values": [
      {"measurement": "Papp at 2.45 h", "setting": "[5]", "value": 1.8, "unit": "×10⁻⁶ cm/s"},
      {"measurement": "pIC50", "setting": "[1]", "value": 3.72},
      {"measurement": "pKi", "setting": "[6]", "value": 5.19},
      {"measurement": "Ratio IC50", "setting": "[2]", "value": 0.008},
      {"measurement": "pKi", "setting": "[7]", "value": 4.40},
      {"measurement": "pIC50", "setting": "[3]", "value": "< 4.00"},
      {"measurement": "pIC50", "setting": "[4]", "value": 6.10},
      {"measurement": "inhibition", "setting": "[8]", "value": 10, "unit": "%"}
    ]}
  ]
}
